Laboratory results as given in US7473790B2 (Pfizer Inc., priority 2003, dated 2009).

Molecular target: T1, HCV polymerase (Hepatitis C virus genotype 1b, UniProt P26663)
T1 construct: 2.5 pmoles (0.15 μg) HCV polymerase protein in a final volume of 75 μL
Test: HCV polymerase primer/template-directed transcription assay (32P-GTP incorporation, filter binding)
Format: biochemical
Conditions: for IC50: recombinant HCV polymerase, 30 minutes at 30° C., concentration giving 50% inhibition of polymerase-directed transcription, read-out: IC50
Summary of the method: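 IC50s come from triplicate cpm, refit with an enzyme-concentration (30 nM) correction when under 200 nM. Reactions ran 30 min at 30° C in Tris pH 7.2 with MgCl2, 1 μM GTP spiked with α-32P-GTP, biotin-dG12 primer and poly(rC)300 template, with 1% DMSO. Incorporated label was collected on DE filtermats and counted.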

T1 sequence (P26663 2420-3010): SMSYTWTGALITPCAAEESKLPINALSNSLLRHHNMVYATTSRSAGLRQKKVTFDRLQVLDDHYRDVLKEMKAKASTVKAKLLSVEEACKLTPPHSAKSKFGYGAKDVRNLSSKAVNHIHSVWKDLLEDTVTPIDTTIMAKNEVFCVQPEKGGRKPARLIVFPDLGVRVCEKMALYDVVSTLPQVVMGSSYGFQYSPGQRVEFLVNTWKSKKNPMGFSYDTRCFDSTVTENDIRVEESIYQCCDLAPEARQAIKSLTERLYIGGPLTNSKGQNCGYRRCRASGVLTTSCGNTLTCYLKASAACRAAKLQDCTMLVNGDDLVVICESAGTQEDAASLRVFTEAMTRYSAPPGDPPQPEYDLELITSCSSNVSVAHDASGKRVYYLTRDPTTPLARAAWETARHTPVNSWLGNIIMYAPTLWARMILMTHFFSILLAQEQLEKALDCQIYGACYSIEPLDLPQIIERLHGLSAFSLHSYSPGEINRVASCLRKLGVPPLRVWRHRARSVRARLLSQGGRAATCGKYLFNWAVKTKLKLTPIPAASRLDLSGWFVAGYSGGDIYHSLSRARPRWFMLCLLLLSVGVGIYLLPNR

Compound	IC50	percent inhibition (compound concentration not given)
Cc1cc(C)n2nc(SC3=C(O)CC(CCNC(=O)CCc4ccco4)(C4CCCC4)OC3=O)nc2n1 (centres unmarked) [H(4), N-{2-[2-Cyclopentyl-5-(5,7-dimethyl-[1,2,4]triazolo[1,5-a]pyrimidin-2-ylsulfanyl)-4-hydroxy-6-oxo-3,6-dihydro-2H-pyran-2-yl]-ethyl}-3-furan-2-yl-propionamide]	60000 nM	
Cc1cnc2nc(CC3=C(O)CC(CCc4ccc(C5(C#N)CCC5)c(F)c4)(C4CCCC4)OC3=O)nn2c1 (centres unmarked) [A(239), 1-(4-{2-[2-Cyclopentyl-4-hydroxy-5-(6-methyl-[1,2,4]triazolo[1,5-a]pyrimidin-2-ylmethyl)-6-oxo-3,6-dihydro-2H-pyran-2-yl]-ethyl}-2-fluoro-phenyl)-cyclobutanecarbonitrile]	3 nM	
CC(C)n1c(SC2=C(O)CC(CCCC3CCCCC3)(C3CCCC3)OC2=O)nc2cc(Cl)ccc21 (centres unmarked) [C(31), 3-(5-Chloro-1-isopropyl-1H-benzoimidazol-2-ylsulfanyl)-6-(3-cyclohexyl-propyl)-6-cyclopentyl-4-hydroxy-5,6-dihydro-pyran-2-one]	510 nM	
COc1cc(OC)c(CCC2(C3CCCC3)CC(O)=C(Sc3nc4cc(N)ccc4n3C)C(=O)O2)cc1Cl (centres unmarked) [C(76), 3-[(5-amino-1-methyl-1H-benzimidazol-2-yl)thio]-6-[2-(5-chloro-2,4-dimethoxyphenyl)ethyl]-6-cyclopentyl-4-hydroxy-5,6-dihydro-2H-pyran-2-one]	53 nM	
CC(C#N)c1ccc(CCC2(C3CCCC3)CC(=O)CC(=O)O2)cc1F (centres unmarked) [A(241), 2-{4-[2-(2-Cyclopentyl-4,6-dioxo-tetrahydro-pyran-2-yl)-ethyl]-2-fluoro-phenyl}-propionitrile]	800 nM	
CC(C)(C#N)c1ccc(CCC2(C3CCCC3)CC(O)=C(Cc3nc4ncc(Cl)cn4n3)C(=O)O2)cc1F (single isomer, unassigned; (-)) [A(249), (−)-2-(4-{2-[5-(6-Chloro-[1,2,4]triazolo[1,5-a]pyrimidin-2-ylmethyl)-2-cyclopentyl-4,6-dioxo-tetrahydro-pyran-2-yl]-ethyl}-2-fluoro-phenyl)-2-methyl-propionitrile]	19 nM	
CCc1cc(CCC2(C3CCCC3)CC(=O)CC(=O)O2)c(OC)cc1O (centres unmarked) [A(151), 6-Cyclopentyl-6-[2-(5-ethyl-4-hydroxy-2-methoxy-phenyl)-ethyl]-dihydro-pyran-2,4-dione]	300 nM	
Cc1cc(C)n2nc(SC3=C(O)CC(CCc4ccc(C(F)F)c(F)c4)(C4CCCC4)OC3=O)nc2n1 (centres unmarked) [C(69), 6-Cyclopentyl-6-{2-[4-(difluoromethyl)-3-fluorophenyl]ethyl}-3-[(5,7-dimethyl[1,2,4]triazolo[1,5-a]pyrimidin-2-yl)thio]-4-hydroxy-5,6-dihydro-2H-pyran-2-one]	130 nM	
CC(C)(C#N)c1ccc(OCC2(C3CCCC3)CC(=O)CC(=O)O2)cc1F (centres unmarked) [C(110), 2-[4-(2-Cyclopentyl-4,6-dioxo-tetrahydro-pyran-2-ylmethoxy)-2-fluoro-phenyl]-2-methyl-propionitrile]	7600 nM	
COc1ccc(CCC2(C3CCCC3)CC(O)=C(Cc3nc4nc(C)cc(C)n4n3)C(=O)O2)cc1C1CC1 (centres unmarked) [B(107), 6-Cyclopentyl-6-[2-(3-cyclopropyl-4-methoxy-phenyl)-ethyl]-3-(5,7-dimethyl-[1,2,4]triazolo[1,5-a]pyrimidin-2-ylmethyl)-4-hydroxy-5,6-dihydro-pyran-2-one]	6 nM	
COc1cc(OC)c(CCC2(C3CCCC3)CC(O)=C(Sc3nnnn3C)C(=O)O2)cc1Cl (centres unmarked) [C(72), 6-[2-(5-Chloro-2,4-dimethoxyphenyl)ethyl]-6-cyclopentyl-4-hydroxy-3-[(1-methyl-1H-tetrazol-5-yl)thio]-5,6-dihydro-2H-pyran-2-one]	78 nM	
COc1cccc(CC2=C(O)CC(CCc3ccc(C(C)(C)C#N)c(F)c3)(C3CCCC3)OC2=O)c1 (centres unmarked) [A(100), 2-(4-{2-[2-cyclopentyl-4-hydroxy-5-(3-methoxybenzyl)-6-oxo-3,6-dihydro-2H-pyran-2-yl]ethyl}-2-fluorophenyl)-2-methylpropanenitrile]	88 nM	
CCn1nnnc1SC1=C(O)CC(CCc2ccc(OC)c(Cl)c2)(C2CCCC2)OC1=O (centres unmarked) [C(39), 6-[2-(3-chloro-4-methoxyphenyl)ethyl]-6-cyclopentyl-3-[(1-ethyl-1H-tetrazol-5-yl)thio]-4-hydroxy-5,6-dihydro-2H-pyran-2-one]	220 nM	
CC1(c2cccc(CCC3(C4CCCC4)CC(=O)CC(=O)O3)c2)CC(=O)CC(=O)O1 (centres unmarked) [A(28), 6-Cyclopentyl-6-[2-(3-(6-Methyl-dihydro-pyran-2,4-dione)-phenyl)-ethyl]-dihydro-pyran-2,4-dione]	3900 nM	
COc1cc(OC)c(CCC2(C3CCCC3)CC(O)=C(Sc3nc4ncc(C)cn4n3)C(=O)O2)cc1Cl (centres unmarked) [C(87), 6-[2-(5-chloro-2,4-dimethoxyphenyl)ethyl]-6-cyclopentyl-4-hydroxy-3-[(6-methyl[1,2,4]triazolo[1,5-a]pyrimidin-2-yl)thio]-5,6-dihydro-2H-pyran-2-one]	28 nM	
COc1ccc(SCC2(C3CCCC3)CC(=O)CC(=O)O2)cc1 (centres unmarked) [A(06), 6-Cyclopentyl-6-(4-methoxy-phenylsulfanylmethyl)-dihydro-pyran-2,4-dione]	23500 nM	
Cc1nc(-c2ccc(CCC3(C4CCCC4)CC(=O)CC(=O)O3)cc2F)no1 (centres unmarked) [A(15), 6-Cyclopentyl-6-{2-[3-fluoro-4-(5-methyl-[1,2,4]oxadiazol-3-yl)-phenyl]-ethyl}-dihydro-pyran-2,4-dione]	4400 nM	
O=C1CC(=O)OC(CCc2ccc(O)c(C3CCCC3)c2)(C2CCCC2)C1 (centres unmarked) [A(89), 6-cyclopentyl-6-[2-(3-cyclopentyl-4-hydroxyphenyl)ethyl]dihydro-2H-pyran-2,4(3H)-dione]	2800 nM	
CCc1ccc(O)c(CCC2(C3CCCC3)CC(O)=C(Cc3nc4ncc(Cl)cn4n3)C(=O)O2)c1 (centres unmarked) [A(170), 3-(6-Chloro-[1,2,4]triazolo[1,5-a]pyrimidin-2-ylmethyl)-6-cyclopentyl-6-[2-(5-ethyl-2-hydroxy-phenyl)-ethyl]-4-hydroxy-5,6-dihydro-pyran-2-one]	10 nM	
Cc1cnc2nc(CC3=C(O)CC(CCc4cc(F)c(C(C)(C)C#N)c(F)c4)(C4CCCC4)OC3=O)nn2c1 (single isomer, unassigned; (-)) [A(258), (−)-2-(4-{2-[2-Cyclopentyl-4-hydroxy-5-(6-methyl-[1,2,4]triazolo[1,5-a]pyrimidin-2-ylmethyl)-6-oxo-3,6-dihydro-2H-pyran-2-yl]-ethyl}-2,6-difluoro-phenyl)-2-methyl-propionitrile]	2 nM	
Cc1cc(C)n2nc(CC3=C(O)CC(CCc4ccc(O)c(C(C)C)c4)(C4CCCC4)OC3=O)nc2n1 (centres unmarked) [B(94), 6-Cyclopentyl-3-(5,7-dimethyl-[1,2,4]triazolo[1,5-a]pyrimidin-2-ylmethyl)-4-hydroxy-6-[2-(4-hydroxy-3-isopropyl-phenyl)-ethyl]-5,6-dihydro-pyran-2-one]		1%
N#CC1(c2ccc(CCC3(C4CCCC4)CC(=O)C(Cc4nc5ncccn5n4)C(=O)O3)cc2F)CC1 (centres unmarked) [A(114), 1-{4-[2-(2-Cyclopentyl-4,6-dioxo-5-[1,2,4]triazolo[1,5-a]pyrimidin-2-ylmethyl-tetrahydro-pyran-2-yl)-ethyl]-2-fluoro-phenyl}-cyclopropanecarbonitrile]	10 nM	
Cc1cnc2nc(CC3=C(O)CC(CCc4ccc(C(C)(C)O)c(F)c4)(C4CCCC4)OC3=O)nn2c1 (centres unmarked) [A(216)]	45 nM	
